Data from patent US20080242869A1, “Tri(Cyclo) Substituted Amide Compounds” (priority 2004, published 2008).

Molecular target: T1, GST-GK, derived from human liver GK (Homo sapiens, UniProt P35557)
T1 sequence (P35557 1-466 isoform P35557-2): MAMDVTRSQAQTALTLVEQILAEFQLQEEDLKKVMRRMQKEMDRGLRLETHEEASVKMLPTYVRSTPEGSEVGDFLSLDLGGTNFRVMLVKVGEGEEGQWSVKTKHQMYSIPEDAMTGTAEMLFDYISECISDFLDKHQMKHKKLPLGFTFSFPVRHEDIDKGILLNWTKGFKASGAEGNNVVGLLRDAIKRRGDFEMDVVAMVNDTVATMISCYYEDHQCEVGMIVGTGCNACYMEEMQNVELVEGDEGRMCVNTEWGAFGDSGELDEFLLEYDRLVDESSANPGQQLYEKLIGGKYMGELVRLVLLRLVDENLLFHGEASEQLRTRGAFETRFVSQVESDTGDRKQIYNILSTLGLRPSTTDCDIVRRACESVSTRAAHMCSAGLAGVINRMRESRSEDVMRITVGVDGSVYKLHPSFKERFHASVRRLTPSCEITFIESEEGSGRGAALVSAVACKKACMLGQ
Assay: In vitro GK activity: G6P production by GST-GK coupled to NADPH generation with G6PDH
Type: biochemical
Settings: 5 mM D-Glc, 30° C., OD 340 nm over 10 min
Experimental: Using a protocol similar to that described in WO2000/58293, GK activity may be assayed by coupling the production of G6P by GST-GK to the generation of NADPH with G6PDH as the coupling enzyme.
The GK assay is performed at 30° C. in a flat bottom 96-well assay plate from Costar with a final incubation volume of 100 μL. The assay buffer contains: 25 mM Hepes buffer (pH 7.4), 12.5 mM KCl, 5 mM D-Glc, 5 mM ATP, 6.25 mM NADP, 25 mM MgCl2, 1 mM dithiothreitol, test compound or 5% DMSO, 3.0 unit/mL G6PDH, and 0.4 μL/mL GST-GK, derived from human liver GK. ATP, G6PDH, and NADP may be purchased from Roche Diagnostics. The other reagents are >98% pure and may be purchased from Kanto Chemicals. The test compounds are dissolved in DMSO, before being added to the assay buffer without ATP. This mix is preincubated in the temperature controlled chamber of a SPECTRAmax 250 microplate spectrophotometer (Molecular Devices Corporation, Sunnyvale, Calif.) for 10 min, then the reaction started by the addition of 10 μL ATP solution.
After starting the reaction, the increase in optical density (OD) at 340 nm is monitored over a 10 min incubation period as a measure of GK activity. […] The compound concentrations that produced a 50% increase in GK activity (i.e. FA1.5) are calculated. […]

- maximum activation of GK: greater than 4 fold
- EC50 (read-out: EC50 (concentration of test compound which produces 50% activation)): < 500 nM
Structure (SMILES): O=C1CC[C@H](C[C@@H](C(=O)Nc2ncc(F)s2)c2ccc(S(=O)(=O)C3CC3)cc2)C1 [Example 7, 2(R)-2-(4-Cyclopropanesulfonylphenyl)-N-(5-fluorothiazol-2-yl)-3-((R)-3-oxocyclopentyl)propionamide]
